Experimental data reported in PubChem BioAssay (NCI).
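Interpolation was linear, between the two tested concentrations surrounding the appropriate level; five concentrations were tested over 48 hours in 96-well plates. Here, GI50 denotes the concentration required for 50% inhibition of growth. TGI denotes the concentration required for complete inhibition of growth.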

Tests used:
Assay in all cases: NCI-60 cell line screen, 48 h
[1] = tested on: MOLT-4 leukemia
[2] = tested on: DU-145 prostate
[3] = tested on: UACC-257 melanoma
[4] = tested on: SR leukemia
[5] = tested on: SNB-19 CNS
[6] = tested on: BT-549 breast
[7] = tested on: MDA-MB-435
[8] = tested on: OVCAR-4 ovarian
[9] = tested on: LXFL 529 NSCLC

Row | SMILES | GI50 [1] [µM] | TGI [1] [µM] | GI50 [2] [µM] | TGI [2] [µM] | GI50 [3] [µM] | TGI [3] [µM] | GI50 [4] [µM] | TGI [4] [µM] | GI50 [5] [µM] | TGI [5] [µM] | GI50 [6] [µM] | TGI [6] [µM] | GI50 [7] [µM] | TGI [7] [µM] | GI50 [8] [µM] | TGI [8] [µM] | TGI [9] [µM]
1 | O=Nc1c(O)c2ccccc2c2ccccc12 | 2.13 | > 100 | 0.961 | 2.23 | 0.476 | 1.75 | 1.07 | 64.2 | 1.13 | 2.55 | 1.25 | 2.55 | 0.179 | 0.317 | 0.198 | 0.48 | 
2 | CC(=O)c1ccc2c(c1)N(CCCN(C)C)c1ccccc1S2 | 16.8 | 41.2 | 17.1 | 34.3 | 18.7 | 37.8 | 18.7 | 49.5 | 18.6 | 43.2 | 12.7 | 25.8 | 11.8 | 25.7 | 18.5 | 65.2 | 
3 | CC1(C)CC(=O)c2c(ccc(C(=O)C[C@@H](N)CO)c2N)O1 | 0.349 | > 37.4 | 0.849 | > 93.1 | 3.25 | 47.8 | 0.15 |  | 0.749 | > 100 | 1.12 | 11.9 | 2.39 | > 100 | 17.7 | > 100 | 
4 | CN(C)c1ccc(C(=C2C=CC(=[N+](C)C)C=C2)c2ccccc2Cl)cc1 | 0.593 | 12.9 | 0.374 | 1.31 | 0.528 | 1.73 | 0.235 | 0.898 | 0.348 | 1.29 | 0.373 | 2.56 | 0.309 | 1.11 | 0.36 | 1.6 | 
5 | N=C(N)SCc1ccc([N+](=O)[O-])cc1[N+](=O)[O-] | 3.07 | 20.2 | 2.25 | 9.95 | 4.44 | 17 | 3.09 | 11.4 | 26 | 79 | 7.35 | 28.6 | 11.8 | 29.3 | 6.01 | 18.7 | 
6 | COC(=O)/C(=C\c1c(-c2ccccc2)[nH]c2ccccc12)S(C)(=O)=O | 4.72 | > 100 | 2.48 | 6.11 | 11.2 | 25.9 | 8.08 | > 100 | 8.68 | > 100 | 4.29 | 78.8 | 0.671 | 4.77 | 6.23 | > 100 | 
7 | CC(OC(=O)N(N(CCCl)S(C)(=O)=O)S(C)(=O)=O)c1ccc([N+](=O)[O-])cc1 (stereo not drawn) | 43.1 | > 100 | 24 | > 100 | 76.1 | > 100 | 26.7 | > 100 | > 88.9 | > 100 | 33.8 | > 100 | 99.4 | > 100 | 73.5 | > 100 | 
8 | O=S(=O)(NCCO)c1cc[c]([Sb](=[O])([OH])[OH])cc1 | > 100 | > 100 | > 100 | > 100 | > 100 | > 100 | > 100 | > 100 | > 100 | > 100 | > 100 | > 100 | > 100 | > 100 | > 100 | > 100 | 
9 | Cc1cnc(SCCN2CCN(C)CC2)nc1-c1cc2ccccc2s1 |  | 7.5 |  |  |  | 23.5 |  | 8.46 |  |  |  |  |  |  |  | 34.1 | 27
10 | FC(F)(F)c1[nH]ncc1-c1nc2ccc3[nH]ncc3c2c2c1CCCC2 | 1.29 | 5.29 | 1.58 | 10.9 | 2.67 | 8.69 | 0.356 | 2.73 | 2.64 | 9.09 | 1.21 | 2.66 | 1.78 | 9.55 | 2.82 | 11.4 | 
11 | Oc1c(CNCCNCc2cc(Cl)cc(Cc3ccccc3)c2O)cc(Cl)cc1Cc1ccccc1 | 0.342 | > 100 | 0.303 | 57.1 | 2.12 | 16.6 | 0.376 | > 100 | 0.701 | > 100 | 4.26 | 28 | 0.435 | 13.2 | 0.0806 | > 100 | 
12 | CCN(Cc1cccc(F)c1F)c1ccc(CO)c(Cl)c1 | 19.8 | 49.9 | 18.8 | 55.6 | 0.0896 | 0.326 | 18.8 | 43.7 | 17 | > 58.6 | 18.5 | 35.9 | 17.7 | 37.1 | 0.127 | 1.24 | 
13 | Clc1ccc(N2CCC(N3CCCC3)CC2)cc1-c1nc2ccccc2[nH]1 | 23.2 | 67.7 | 36.7 | > 100 | 17 | 32.9 | 20.1 | 58.7 | 33.7 | > 100 | 14.1 | 31.2 | 17.7 | 35.7 | 27.1 | > 91.4 | 
14 | Nc1cc2nc3ccccc3oc-2cc1=O | 10.1 | > 63.2 | 1.57 | 2.98 | 2.35 | 6.68 | 9.93 | > 75.3 | 5.44 | 16 | 1.54 | 3.53 | 0.516 | 1.77 | 23.4 | > 100 | 
15 | CSc1nc(N)c2c(n1)NC(c1ccccc1)C1CCc3ccccc3C1=N2 (stereo not drawn) | 1.85 | 38.8 | > 100 | > 100 | > 100 | > 100 | 1.65 | 5.54 | > 100 | > 100 | > 100 | > 100 | 55.5 | > 100 | 4.38 | > 100 | 
